Laboratory results from patent US20180333371A1, “CURCUMIN AND RESVERATROL FOR CHRONIC INFLAMMATION” (DSM IP Assets B.V., priority 2015, published 2018).

Key:
Type in all cases: cell-based, Sprague Dawley rat
[1] = system: IL-1β release by primary microglia; assay: LPS-stimulated IL-1β release by primary microglia (multiplex ELISA); conditions: 0-250 μM, FIG. 2C
Description: (§1) Microglial Harvesting and Culture. All experiments involving animals were approved by the Animal Care and Use Committee established at Bolder Biopath, Inc. (Boulder, Colo.). Primary microglial cultures were derived from neocortical tissue of E22 Sprague Dawley rat pups taken from timed-pregnant dams (Charles River) by Caesarean section. Briefly, the pup brain cortices were isolated in Hibernate EB (Brain Bits; Springfield, Ill.). The samples were then transferred to Hibernate E (without Ca; Brain Bits; Springfield, Ill.) and washed twice with fresh Hibernate E (−Ca). The tissue was next digested in Hibernate E (−Ca) containing 0.5% trypsin (Sigma) for 15 min at 37° C.). […]
(§2) The tissue was triturated into single cells, and the suspension was filtered through a 70-μm cell strainer. Cell numbers and viability were consistently greater than 95% as determined using trypan blue (0.4%; Fisher Scientific) and a Countess automated cell counter (Life Technologies, Grand Island, N.Y.). […]
(§3) Cell Stimulation and Cytokine Assays. […] The concentration of prostaglandin E2 (PGE2) in the supernatant was measured by ELISA (Cayman Chemical). The concentrations of tumor necrosis factor-α (TNF-α), interleukin-1β (IL-1β) and interleukin-6 (IL-6) in the supernatant were determined by multiplex ELISA (Quansys Biosciences; Logan, Utah). […]

[2] = system: PGE2 release from primary microglia; assay: LPS-stimulated PGE2 release by primary microglia (ELISA); conditions: for effect on PGE2 release: FIG. 2A
Description: Microglial Harvesting and Culture. All experiments involving animals were approved by the Animal Care and Use Committee established at Bolder Biopath, Inc. (Boulder, Colo.). Primary microglial cultures were derived from neocortical tissue of E22 Sprague Dawley rat pups taken from timed-pregnant dams (Charles River) by Caesarean section. Briefly, the pup brain cortices were isolated in Hibernate EB (Brain Bits; Springfield, Ill.). The samples were then transferred to Hibernate E (without Ca; Brain Bits; Springfield, Ill.) and washed twice with fresh Hibernate E (−Ca). The tissue was next digested in Hibernate E (−Ca) containing 0.5% trypsin (Sigma) for 15 min at 37° C.). The overlying solution was removed, and the trypsin reaction was quenched by washing the settled tissue with Hibernated E (—Ca) containing 20% heat-inactivated fetal bovine serum (FBS; Hyclone).
The tissue was triturated into single cells, and the suspension was filtered through a 70-μm cell strainer. Cell numbers and viability were consistently greater than 95% as determined using trypan blue (0.4%; Fisher Scientific) and a Countess automated cell counter (Life Technologies, Grand Island, N.Y.). Cells were seeded into T-75 flasks (VWR) at 8×10^6 cells/flask in HiGlutaXL Dulbecco's Modified Eagle Medium (DMEM, 4.5 g/L glucose, plus glutamine; HyClone) containing 100 μg/mL penicillin, 100 μg/mL streptomycin, 0.5 ng/mL amphotericin (CellnTec) and 1 mM sodium pyruvate. The media was changed on day 3 in vitro, and the cells were fed every 4-5 days while in the flasks. At day 14 in vitro, mouse granulocyte macrophage colony stimulating factor (mGM-CSF; R&D Systems; Minneapolis, Minn.) was added at a final concentration of 5 ng/mL to stimulate microglial differentiation.
as §3

[3] = system: TNF-α release by primary microglia; assay: LPS-stimulated TNF-α release by primary microglia (multiplex ELISA); conditions: 0-250 μM, FIG. 2B
Description: as §1, §2, §3

[4] = system: PGE2 release from primary microglia; assay: Synergism analysis (median-effect principle, combination index, ComboSyn) of PGE2 release inhibition

`Oc1ccc(C=Cc2cc(O)cc(O)c2)cc1` [Resveratrol, resveratrol] was tested, and the “significant effects on IL-1β release” value [1] was “not detected”, the “effect on PGE2 release” value ([2]; 75 μM) was “significantly inhibited” and the “effect on PGE2 release” value ([2]; 250 μM) was “significantly inhibited”. For the same compound, the IC50 ([2]; Rattus norvegicus, FIG. 3) was 2250 nM, the “significant effects on TNF-α release” value [3] was “not detected” and the “Dose reduction index (DRI)” value ([4]; in combination resveratrol 2.25 μM + curcumin C3 7 nM, FIG. 4) was 42.76. The “decrease in concentration that would still have a synergistic effect in combination” value ([4]; relative to 2.25 μM resveratrol / 7 nM curcumin C3) was 43%.
